Entries after “also recorded” stand apart in the source; their conditions may differ.
What was measured:
[1] = tested on: bacterial organisms present in patient urine sample; test: Antibiotic Resistance (ABR) assay utilizing agar-containing medium; assay type: cell-based
Description: Urine samples suitable for processing with this assay are collected, transported, and stored using BD Vacutainer (gray top) tubes or other suitable leak-proof sterile container. Urine samples may be held at room temperature for 48 hours before test results are compromised.
Antibiotic stocks are stored at 2-8° C. and protected from direct sunlight. Prepared antibiotic stock solutions were aliquoted into a 96-deep well plate (Thermo Fisher Scientific) to form an Antibiotic Source Plate, as shown in FIG. 11 and identified by antibiotic name and concentration (μg/mL; 10× final concentration). […] One well was designated AB-blend which contained a combination of antibiotics to ensure there was no bacterial growth.
One hundred microliters of Mueller-Hinton agar medium was aliquoted into each appropriate well position of a 96-well microplate (VIS 96/F-PS, Eppendorf). The medium was allowed to solidify at room temperature for at least 10 min.
The antibiotics (10 μL) at various concentrations were then aliquoted into desired wells from the Antibiotic Source Plate. After the antibiotics were introduced to the agar medium, the ABR microplates were allowed to sit for at least 1 hr before use. If long-term storage is required, ABR microplates containing antibiotic-infuse agar are stored at 2-8° C. in the dark.
At the time of testing, urine samples were diluted 1:20 in sterile saline and vortexed. Each patient sample utilized a single ABR microplate. Five microliters of diluted patient sample were added to each well of the room temperature microplate, the plate was sealed and incubated for 16-18 hr at 37° C.
After incubation, the plate was removed from the incubator and carefully uncovered. Two-hundred microliters of deionized water were added to each well to suspend cells present above the agar and the plates incubated at room temperature for 30 min. After 30 min, 100 μl from each well was removed to a new plate and the OD600 was determined in a spectrophotometer. Five separate reads were taken of each plate and a mean OD600 measurement calculated.
Controls include: No-antibiotic control, Negative control plate, and AB-Blend. No antibiotic control: Any well containing medium that is not infused with antibiotics to ensure viability of bacterial cells present in patient urine samples and included in each plate. […] Negative control plate: Microplate containing antibiotic-infused agar medium without addition of patient sample or cultured bacterial organisms to ensure non-contamination of reagents. AB-Blend: One or more wells containing a combination of antibiotics to ensure there is no bacterial growth.
The raw data was then “blanked” using the measurement obtained from the AB-Blend well, as depicted in Table 5.
(§1) To determine whether bacterial organisms present in the patient samples were resistant or sensitive to a particular antibiotic at a certain concentration, blanked OD readings were compared to a threshold OD600 of 0.025 (Table 6). Any OD measurement greater than or equal to this threshold was designated Resistant (R) meaning bacterial organisms present in patient sample were resistant to that particular antibiotic at that certain concentration. Any OD measurement less than this threshold was designated Sensitive (S) meaning bacterial organisms present in patient sample were sensitive to that particular antibiotic at that certain concentration.

[2] = tested on: bacterial organisms present in patient urine sample; test: Antibiotic Resistance (ABR) assay utilizing liquid growth medium; assay type: cell-based; settings: liquid medium
Description: Urine samples suitable for processing with this assay are collected, transported, and stored using BD Vacutainer tubes or other suitable leak-proof sterile containers. Urine samples may be held at room temperature for 48 hours before test results are compromised.
Antibiotic stocks are stored at 2-8° C. and protected from direct sunlight. Prepared antibiotic stock solutions were aliquoted into a 96-deep well plate (ThermoFisher Scientific) to form a 50× Antibiotic Source Plate and then diluted 1:5 to form a 10× Antibiotic Source Plate, as shown in FIG. 12 where each well is identified by antibiotic name and concentration (μg/mL; 10× final concentration). […] One well was assigned sodium azide to ensure no bacterial growth would be observed in that well.
Twenty microliters of each antibiotic solution were aliquoted into the pre-determined wells of a 96-well microplate (VIS 96/F-PS, Eppendorf) from the 10× Antibiotic Source Plate to create ABR testing plates for inoculation. These ABR testing plates were allowed to sit for up to 24 hours before use at 2-8° C. in the dark.
At the time of testing, urine samples were centrifuged to concentrate any bacterial cells and then mixed with liquid Mueller-Hinton medium and incubated for 6-16 hours at 37° C. After this initial incubation, the sample is diluted to 0.5-0.6 McF in saline and then 500 μl of that suspension was added to […] of Mueller-Hinton medium. One-hundred and eighty microliters of the diluted sample is then aliquoted to each well of the ABR microplate already containing 10× antibiotic solution, bringing all of the antibiotics to the desired final concentration. The plate is then sealed and incubated for 12-16 hours at 37° C.
After incubation, the plate was removed from the incubator and carefully uncovered and the OD600 was determined for each appropriate well by spectrophotometer. Five separate measurements were taken of each well on a plate and the mean OD600 measurement calculated for each well.
Controls are depicted in Table 10.
The raw data was then “blanked” using the measurement obtained from the Na-Azide well, as depicted in Table 14.
as §1, with “0.065” for “0.025”, “15). An” for “6). Any”

[3] = tested on: E. coli and S. agalactiae; test: P-AST species-pair interaction on antibiotic resistance (logistic regression, HSAP/UP); assay type: cell-based, Escherichia coli; Streptococcus agalactiae; settings: E. coli and S. agalactiae together v. expected from each species alone (HSAP/UP)
Description: (§2) The Pooled Antibiotic Sensitivity Test (P-AST) is permitting the organisms identified to grow in the presence of antibiotics and measuring the minimum concentration of antibiotic to inhibit growth. Antibiotic susceptibility testing is performed when at least a single organism within a pool of organisms reaches a certain threshold, (e.g., at least 3,000 cells/ml, at least 5,000 cells/ml, at least 10,000 cells/ml, etc.) and can grow in the presence of the antibiotic in the assay within the time of testing. (Note: 10,000 cells/ml is equivalent to 10,000 CFU/ml.) The present invention is not limited to a 10,000 cells/mL threshold. These pools of organism(s) are inoculated into growth medium then placed onto an antibiotic laden “spec plate” that is then incubated and analyzed for growth. The breakpoints are derived from the CLSI breakpoints.
(§3) P-AST was performed by aliquoting 1 mL of patient urine specimen into a 1.7 mL microcentrifuge tube. After centrifugation, the supernatant was aspirated and discarded, leaving approximately 100 or 50 μL (minimum volume left above pellet created from centrifugation) of patient sample in the microcentrifuge tube. One mL of Mueller Hinton Growth Media was then aliquoted into the patient sample in the microcentrifuge tube and the tubes were incubated at 35° C. in a non-CO2 incubator for 6 hours. Non-inoculated liquid MH-media is incubated as the negative control to confirm the media used is not contaminated. Those samples that reached a minimum threshold of 10,000 cells/mL were then diluted by aliquoting 0.5 mL of sample into a 50 mL conical tube containing Mueller Hinton Growth Media (in this example, the dilution was 1:60, e.g., 500 μL was added to 29.5 mL). 96-well plates pre-loaded with antibiotics were then inoculated with diluted samples and incubated along with control plates for 12-16 hours at 35° C. in a single layer. Optical density of samples was then read on a DensiCHEK plate reader. The DensiCHEK instrument is used to measure the concentration of turbid samples considered positive because PCR-ID result was >=10,000 cells/mL. The turbid samples were diluted/normalized to the same concentration and then added to a volume of liquid, e.g., 29.5 mL of liquid MH-media. A spectrophotometer (plate reader) is used to measure optical density of the samples in wells of antibiotics and inoculum in order to determine if there is growth in a well. The present invention is not limited to a concentration of 10,000 cells/mL.
(§4) Interactions between pairs of bacterial species were investigated using a logistic regression model to predict resistance in the presence of specific bacterial species. Bacterial species that tested positive in at least 30 samples were considered in the regression model: these 16 species were A. schaalii, A. urinae, A. omnicolens, CoNS, C. riegelii, E. faecalis, E. coli, K. oxytoca, K. pneumoniae, M. morganii, P. mirabilis, P. aeruginosa, S. aureus, S. agalactiae, U. urealyticum, VGS. Backward stepwise model selection was performed on the model with all main effects and all pairwise interactions using an enter significance level of α=0.10 and an exit significance level of α=0.05 to obtain the best fitting model. This model was used to predict resistance rates when a specific organism was present or when a specific pair of organisms were present.
(§5) Using the logistic regression model described above, the resistance rate for a pair of species was compared to the resistance rates for each species alone. […]

[4] = tested on: E. coli and P. mirabilis; test: as above; assay type: cell-based, Escherichia coli; Proteus mirabilis; settings: E. coli and P. mirabilis together v. expected from each species alone (HSAP/UP)
Description: as §2, §3, §4, §5

| Compound | Blanked (OD600 minus AB-Blend well) ([1]; antibiotic 4 μg/mL) | Mean (OD600) ([1]; antibiotic 4 μg/mL) | Blanked (OD600 minus AB-Blend well) ([1]; antibiotic 8 μg/mL) | Mean (OD600) ([1]; antibiotic 8 μg/mL) | Blanked (OD600 minus Na-Azide well) ([2]; antibiotic 2 μg/mL) | Mean (OD600) ([2]; antibiotic 2 μg/mL) | Blanked (OD600 minus Na-Azide well) ([2]; antibiotic 4 μg/mL) | Mean (OD600) ([2]; antibiotic 4 μg/mL) | Blanked (OD600 minus Na-Azide well) ([2]; antibiotic 8 μg/mL) | Mean (OD600) ([2]; antibiotic 8 μg/mL) | Blanked (OD600 minus Na-Azide well) ([2]; antibiotic 16 μg/mL) | Mean (OD600) ([2]; antibiotic 16 μg/mL) | change in antibiotic resistance of the pair of organisms [4] | Blanked (OD600 minus Na-Azide well) ([2]; antibiotic 32 μg/mL) | Mean (OD600) ([2]; antibiotic 32 μg/mL) | further results |
| --- | --- | --- | --- | --- | --- | --- | --- | --- | --- | --- | --- | --- | --- | --- | --- | --- |
| CN(C)[C@@H]1C(O)=C(C(N)=O)C(=O)[C@@]2(O)C(O)=C3C(=O)c4c(O)cccc4[C@@](C)(O)[C@H]3C[C@@H]12 [tetracycline] | 0.3920 | 0.4304 | 0.4012 | 0.4396 | 0.1627 | 0.2084 | 0.1767 | 0.2224 | 0.1139 | 0.1596 | 0.0082 | 0.0539 |  |  |  | Blanked (OD600 minus AB-Blend well) ([1]; antibiotic 16 μg/mL): 0.4166; Mean (OD600) ([1]; antibiotic 16 μg/mL): 0.4550 |
| C[C@H]1COc2c(N3CCN(C)CC3)c(F)cc3c(=O)c(C(=O)O)cn1c23 [Levofloxacin, levofloxacin] | 0.0360 | 0.0744 | 0.0028 | 0.0412 | −0.0021 | 0.0436 | −0.0026 | 0.0431 | −0.0014 | 0.0443 |  |  |  |  |  | Blanked (OD600 minus AB-Blend well) ([1]; antibiotic 1 μg/mL): 0.0024; Mean (OD600) ([1]; antibiotic 1 μg/mL): 0.0408; Blanked (OD600 minus AB-Blend well) ([1]; antibiotic 2 μg/mL): 0.0017; Mean (OD600) ([1]; antibiotic 2 μg/mL): 0.0401; Blanked (OD600 minus Na-Azide well) ([2]; antibiotic 1 μg/mL): 0.0723; Mean (OD600) ([2]; antibiotic 1 μg/mL): 0.1180 |
| CC(C)(O/N=C(\C(=O)N[C@@H]1C(=O)N2C(C(=O)[O-])=C(C[n+]3ccccc3)CS[C@H]12)c1csc(N)n1)C(=O)O [Ceftazidime, ceftazidime] |  |  |  |  |  |  | 0.2000 | 0.2457 | 0.2150 | 0.2607 | 0.2016 | 0.2473 | decrease in resistance; also recorded: decreased odds of resistance | 0.1980 | 0.2437 | change in antibiotic resistance of the pair of organisms [3]: decrease in resistance; also recorded: decreased odds of resistance |
| Cc1nnc(SCC2=C(C(=O)O)N3C(=O)[C@@H](NC(=O)Cn4cnnn4)[C@H]3SC2)s1 [Cefazolin, cefazolin] |  |  |  |  | 0.1882 | 0.2339 |  |  | 0.1633 | 0.2090 | 0.1011 | 0.1468 | decrease in resistance; also recorded: decreased odds of resistance | 0.0113 | 0.0570 |  |
| O=C1CN(/N=C/c2ccc([N+](=O)[O-])o2)C(=O)N1 [Nitrofurantoin, nitrofurantoin] |  |  |  |  |  |  |  |  |  |  |  |  |  | 0.0095 | 0.0552 | Blanked (OD600 minus AB-Blend well) ([1]; antibiotic 32 μg/mL): 0.0003; Mean (OD600) ([1]; antibiotic 32 μg/mL): 0.0387; Blanked (OD600 minus AB-Blend well) ([1]; antibiotic 64 μg/mL): 0.0002; Mean (OD600) ([1]; antibiotic 64 μg/mL): 0.0386 |

Reference: patent publication US20210301315A1, “METHODS FOR TREATING POLYMICROBIAL INFECTIONS” (priority 2017, published 2021)
